Results: ChEMBL document CHEMBL1122684, “The 3,4-catechol derivative of propranolol, a minor dihydroxylated metabolite” (J Med Chem, 1984)
Where a name gives a salt, the structure may show the parent alone.

Tests used:
[1] = molecular target: Beta-1 adrenergic receptor (Cavia porcellus, UniProt B0FL73); assay: Compound was evaluated for competitive antagonism of beta-1 adrenergic receptor in guinea pig atria measured as pA2 (-log KB); assay type: functional; details: read-out: pA2 (converted)
[2] = molecular target: Beta-2 adrenergic receptor (Rattus norvegicus) (UniProt P10608); assay: Compound was evaluated for competitive antagonism of beta-2 adrenergic receptor in rat uterus measured as pA2 (-log KB)
Sequence of Beta-2 adrenergic receptor (Rattus norvegicus) (P10608 whole entry, looked up): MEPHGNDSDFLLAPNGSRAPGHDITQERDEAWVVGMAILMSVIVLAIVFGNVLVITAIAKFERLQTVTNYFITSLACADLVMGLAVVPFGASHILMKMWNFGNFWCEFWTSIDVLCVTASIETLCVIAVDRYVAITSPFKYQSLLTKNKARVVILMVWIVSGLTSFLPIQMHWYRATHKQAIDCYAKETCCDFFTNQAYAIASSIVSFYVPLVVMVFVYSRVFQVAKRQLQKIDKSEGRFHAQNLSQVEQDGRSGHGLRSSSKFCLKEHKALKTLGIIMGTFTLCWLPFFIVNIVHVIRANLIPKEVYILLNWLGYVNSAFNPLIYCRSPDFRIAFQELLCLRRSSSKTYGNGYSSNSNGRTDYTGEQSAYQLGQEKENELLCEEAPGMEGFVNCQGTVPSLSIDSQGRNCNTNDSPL

Sequence of Beta-1 adrenergic receptor (B0FL73 whole entry): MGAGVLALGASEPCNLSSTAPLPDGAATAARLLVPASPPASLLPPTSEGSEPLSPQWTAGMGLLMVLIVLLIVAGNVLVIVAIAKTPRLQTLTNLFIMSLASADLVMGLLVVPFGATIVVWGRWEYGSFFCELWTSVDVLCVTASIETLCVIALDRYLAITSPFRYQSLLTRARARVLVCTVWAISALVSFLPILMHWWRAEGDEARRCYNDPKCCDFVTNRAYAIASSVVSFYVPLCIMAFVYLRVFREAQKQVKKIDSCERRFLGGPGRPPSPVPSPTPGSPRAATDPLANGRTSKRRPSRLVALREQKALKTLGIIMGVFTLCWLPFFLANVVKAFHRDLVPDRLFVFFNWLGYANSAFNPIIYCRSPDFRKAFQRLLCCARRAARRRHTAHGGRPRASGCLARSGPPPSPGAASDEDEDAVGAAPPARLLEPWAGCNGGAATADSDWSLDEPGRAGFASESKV

Kb [1]	Kb [2]	SMILES
50.1 nM	29.5 nM	CC(C)NCC(O)COC1=CC(=O)C(=O)c2ccccc21 (centres undefined)
5.75 nM	2.4 nM	CC(C)NCC(O)COc1ccc(O)c2ccccc12 (centres undefined) [4-HYDROXYPROPRANOLOL SULFATE]
